This passage reports IC50 results from patent US10137110B2, “1-cyclohexyl-2-phenylaminobenzimidazoles as mIDH1 inhibitors for the treatment of tumors” (Bayer Pharma Aktiengesellschaft, priority 2014, dated 2018).

Structures are written as SMILES. pIC50: −log10 of the molar value.

Test [1] concerns the target mutated isocitrate dehydrogenase (mIDH) protein overexpressed in LN229 R132H cells (Homo sapiens (Human), UniProt O75874, R132H). Briefly: Mutant IDH1 cellular assay (2-HG in medium of LN229 R132H cells). In kind it is cell-based. The settings on record: 24 hours, fluorescence readout. Here is the method: Mutant IDH1 Cellular Assay
Levels of (2R)-2-hydroxyglutarate (2HG) were measured in medium of a cell line with overexpression of mutated isocitrate dehydrogenase (mIDH) protein. mIDH catalyzes the NADPH-dependent reduction of alpha-ketoglutarate to 2-HG. Cells (LN229 R132H, Mohrenz et al., Apoptosis (2013) 18:1416-1425) were grown in DMEM containing 10% FCS. They were harvested by trypsin and seeded into 96-well plates. Cells were incubated overnight at 37° C. in 5% CO2. The next day test compounds were added to each cell well. The final concentration of DMSO was 0.1% and DMSO controls were included. The plates were then placed in an incubator for 24 hours.
2-HG was measured according to Balss et al. (Acta Neuropathol (2012) 124: 883-891). Briefly, HClO4 was added to each well and the plates were centrifuged. Aliquots are removed and incubated with hydroxyglutarate dehydrogenase (HGDH), diaphorase, NAD+, and resazurin. The conversion of resazurin to resorufin was detected by fluorescence spectroscopy at Ex 540 nm Em 600 nm. The increase in fluorescence is proportional to 2-HG production. IC50 values are determined by interpolation from plots of relative fluorescence vs inhibitor concentration.

A further test addresses IDH1 R132H enzyme (Homo sapiens (Human), UniProt O75874, R132H). Briefly: Mutant IDH1 R132H biochemical assay. As to conditions: NADPH consumption, luminescent readout; 1.5 nM enzyme, 250 μM α-KG, 1 μM NADPH, 30 minutes, 32° C.; test range 0.002-10 μM. As for the experimental part:
mIDH1 catalyzes the NADPH-dependent reduction of alpha-ketoglutarate (α-KG) to (2R)-2-hydroxyglutarate (2-HG). NADPH consumption was measured by luminescent readout.
The biochemical reactions were performed at 32° C. in 384-well plates using a reaction volume of 41 μl and the following assay buffer conditions: 50 mM Tris pH 7.5, 100 mM NaCl, 20 mM MgCl2, 0.05% BSA, 0.01% Brij, 1 μM NADPH, and 250 μM α-KG. […] Test compounds were used in a concentration range between 0.002 and 10 μM. The final DMSO concentration was 2.4%.
The reaction was incubated for 30 minutes, then 40 μl of detection mix (0.75 μg/ml Luciferase, 0.02 U/ml Oxidoreductase, 4 μg/ml FMN, 2 μl/ml Decanal/Ethanol, 50 mM Tris pH 7.5, 0.5% Glycerin, 0.01% Tween-20, 0.05% BSA) was added. Luminescence was measured on a luminescent reader (10 seconds measuring time, 1 second integration period, 30% sensitivity). The decrease in luminescence is proportional to mIDH1 activity. IC50 values are determined by interpolation from plots of relative luminescence versus inhibitor concentration.

IDH1 R132H enzyme, sequence (O75874 whole entry R132H): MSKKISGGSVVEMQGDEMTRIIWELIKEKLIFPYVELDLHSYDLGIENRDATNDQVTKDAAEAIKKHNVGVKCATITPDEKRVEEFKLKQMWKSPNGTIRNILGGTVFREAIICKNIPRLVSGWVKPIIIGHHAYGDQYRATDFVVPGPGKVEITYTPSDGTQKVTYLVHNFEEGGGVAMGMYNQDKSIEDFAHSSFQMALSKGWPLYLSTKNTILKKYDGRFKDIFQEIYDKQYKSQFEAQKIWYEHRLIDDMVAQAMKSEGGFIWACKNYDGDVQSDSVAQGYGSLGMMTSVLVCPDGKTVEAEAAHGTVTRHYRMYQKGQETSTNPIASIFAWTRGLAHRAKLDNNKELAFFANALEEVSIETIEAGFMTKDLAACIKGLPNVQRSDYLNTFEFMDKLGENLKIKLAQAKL
mutated isocitrate dehydrogenase (mIDH) protein overexpressed in LN229 R132H cells, sequence (O75874 whole entry R132H): as above

In the case of `Cc1nnc(-c2cc3nc(Nc4ccc(OC(F)(F)F)cc4)n(C4CC(C)(C)CC(C)(C)C4)c3cc2C)[nH]1` [Example 2-30, 6-methyl-5-(5-methyl-4H-1,2,4-triazol-3-yl)-1-(3,3,5,5-tetramethylcyclohexyl)-N-[4-(trifluoromethoxy)phenyl]-1H-benzimidazol-2-amine], the results for the pIC50 (in test [1]; on IDH1 R132H enzyme) were 5.82 and 6.92, respectively.

`Cc1cc2c(cc1C1OC(=O)NC1=O)nc(Nc1ccc(OC(F)(F)F)cc1)n2C1CC(C)(C)CC(C)(C)C1` (stereo not drawn) [Example 2-36, 5-[6-methyl-1-(3,3,5,5-tetramethylcyclohexyl)-2-{[4-(trifluoromethoxy)phenyl]amino}-1H-benzimidazol-5-yl]-1,3-oxazolidine-2,4-dione]: the pIC50 (usually the negative decadic logarithm of the IC50, by convention in mol/L) in test [1] was 7.66; against IDH1 R132H enzyme it was 7.85.

Regarding `Cc1cc2c(cc1-c1cc(O)no1)nc(Nc1ccc(OC(F)(F)F)cc1)n2C1CC(C)(C)CC(C)(C)C1` [Example 2-37, 5-[6-methyl-1-(3,3,5,5-tetramethylcyclohexyl)-2-{[4-(trifluoromethoxy)phenyl]amino}-1H-benzimidazol-5-yl]-1,2-oxazol-3-ol], the pIC50 in test [1] is 6.60; against IDH1 R132H enzyme, 7.52.
